{"source": "patent US20180360037A1", "about": "“STEREOISOMER OF BROMADIOLONE, COMPOSITION AND RODENTICIDE BAIT COMPRISING SAME, AND METHOD FOR CONTROLLING TARGET RODENT PESTS” (priority 2015, published 2018)", "key": {"[1]": {"assay_type": "in vivo, rat", "conditions": "for concentration of each enantiomer in rat liver: mixture of diastereoisomers, about 13 mg/kg per os on D0, from D+3, FIG. 3", "experimental": "Separation of the configurational stereoisomers of bromadiolone is performed by high-pressure liquid chromatography (HPLC) on a LUX® Cellulose-1 chiral column (Phenomenex, Le Pecq, France) containing a chiral stationary phase constituted of particles of cellulose tris(3,5-dimethylphenyl carbamate), said particles having a mean size of 3 μm and having a mean pore size of 1000 Å. A mixture formed from acetonitrile (A) and water comprising 0.1% by volume of formic acid (B), with an A/B volume ratio of 80/20 and with a flow rate of 0.25 mL/minute in the chromatography column, is used as mobile phase. The concentration of the composition to be analysed is 1 μg of bromadiolone per millilitre of acetonitrile and the volume injected onto the column is 1 μL. Detection is performed by tandem mass spectrometry (MS/MS) in negative electrospray ionization (ESI) mode. The temperature of the nebulizer gas is 350° C. and its flow rate is 8 L/minute. The pressure of the nebulizer gas is brought to 2700 hPa. In particular, the MRM (“Multiple Reaction Monitoring”) transitions m/z 525.1→250.1 and m/z 525.1→181, corresponding to the bromadiolone signal, are detected.\nAbout 0.525 g (±0.025 g) of rat liver is weighed out accurately and placed in a 50 mL polypropylene tube. 10 mL of acetone are added and the suspension is homogenized using an Ultra-Turrax® homogenizer/disperser for a time of about 30 seconds. The homogenizer/disperser shaft is rinsed with hot water and then twice with 20 mL of acetone in a polypropylene tube. The homogenate is centrifuged for 5 minutes at a centrifugation speed of 3000 rpm (revolutions per minute). The supernatant is collected and transferred into a test tube. The sample is subjected to evaporation under a stream of nitrogen (N2) at a temperature of 40° C. so as to form a dry extract.\n1 mL of acetonitrile is added to the tube containing the dry extract so as to dissolve it. The acetonitrile solution is washed twice successively with 1 mL of hexane. The lipid-free extract is dried under a stream of nitrogen (N2) at a temperature of 40° C. and is then taken up in 0.5 mL of methanol and dissolved by vortex stirring. 0.5 mL of ultra-pure (Milli-Q) water is then added. The sample is vortex-homogenized.\n1 mL of dichloromethane (CH2Cl2), then 1 mL of methanol (CH3OH), then 1 mL of ultra-pure (Milli-Q) water are passed through an Oasis HLB 1 cc cartridge (WAT094225, Waters). The lipid-free liver extract (1 mL MeOH/Milli-Q H2O) containing bromadiolone is then loaded onto the top of the preconditioned cartridge. The liver extract penetrates through the cartridge by gravity on contact with the solid phase of the cartridge. 1 mL of washing solution formed from methanol (CH3OH) and ultra-pure water (H2O) in a 90/10 volume proportion is loaded onto the top of the cartridge. The cartridge is dried by suction under vacuum connected to the bottom of the cartridge. 1 mL of eluting solution formed from dichloromethane (CH2Cl2) and methanol (CH3OH) in a 90/10 volume proportion is then loaded onto the top of the cartridge and an eluate comprising bromadiolone is collected at the bottom of the cartridge. The solvent of the eluate is evaporated off under a stream of nitrogen (N2) at a temperature of 40° C. The sample is taken up in 0.5 mL of acetonitrile and the acetonitrile solution containing bromadiolone is filtered through a 0.2 μm filter. […]"}, "[2]": {"tested_on": "male laboratory rats (OFA, Sprague-Dawley 200 g)", "assay": "Anticoagulant power of each configurational stereoisomer of bromadiolone (coagulation time, Quick time, of plasma of tube-fed rats)", "assay_type": "in vivo, rat", "conditions": "for anticoagulant effect (coagulation time, Quick time): 1.5 mg of enantiomer per kg rat by tube feeding on D0, up to D3, FIG. 4", "experimental": "The following are administered to male laboratory rats (OFA, Sprague-Dawley 200 g) by tube feeding on D0: a composition comprising enantiomer E1 of said diastereoisomer D12 in a proportion of 1.5 mg of said enantiomer E1 per kilogram of rat; or a composition comprising enantiomer E2 of said diastereoisomer D1,2 in a proportion of 1.5 mg of said enantiomer E2 per kilogram of rat; or a composition comprising enantiomer E3 of said diastereoisomer D3,4 in a proportion of 1.5 mg of said enantiomer E3 per kilogram of rat; or a composition comprising enantiomer E4 of said diastereoisomer D3,4 in a proportion of 1.5 mg of said enantiomer E4 per kilogram of rat.\nThe rats receive vitamin K1 daily in a proportion of 0.1 unit of vitamin per 200 g of rat so as to keep them alive for 7 days or 14 days. However, the administration of vitamin K1 is stopped 48 hours before the rats are euthanized so as to allow evaluation of the Quick time without interference with the supplementation by tube feeding.\nOn these rats, blood is collected on D1, D3, D7 and D14 and measurement of the coagulation time (Quick time, expressed in seconds) of the plasma is performed using the “Neoplastine CI Determination of Prothrombin Time” kit (Diagnostica Stago, Asnière, France) by measurement on a Thrombotimer Option 2 Plus machine (Behnk Electronik, Norderstedt, Germany)."}, "[3]": {"conditions": "summary statement of the inventors"}}, "note": "Where two headings read alike, the source gives them in different places."}
{"smiles": "O=c1oc2ccccc2c(O)c1C(CC(O)c1ccc(-c2ccc(Br)cc2)cc1)c1ccccc1", "note": "(single isomer, unassigned) [enantiomer E1, 3-[3-(4′-bromo[1,1′-biphenyl]-4-yl)-3-hydroxy-1-phenylpropyl]-4-hydroxy-2H-1-benzopyran-2-one]", "values": [{"measurement": "concentration of each enantiomer in rat liver", "setting": "[1]; listed as E1", "value": "remains in the rat liver"}]}
{"smiles": "O=c1oc2ccccc2c(O)c1C(CC(O)c1ccc(-c2ccc(Br)cc2)cc1)c1ccccc1", "note": "(single isomer, unassigned) [enantiomer E4, 3-[3-(4′-bromo[1,1′-biphenyl]-4-yl)-3-hydroxy-1-phenylpropyl]-4-hydroxy-2H-1-benzopyran-2-one]", "values": [{"measurement": "concentration of each enantiomer in rat liver", "setting": "[1]; listed as E4", "value": "only enantiomer E1 remains in the rat liver"}, {"measurement": "persistence in the liver of target rodent pests", "setting": "[1]; [3]", "value": "sufficient to be rodenticidal"}, {"measurement": "anticoagulant effect (coagulation time, Quick time)", "setting": "[2]; listed as E4", "value": "sufficient to maintain an anticoagulant effect at least up to D3"}, {"measurement": "anticoagulant activity compared with enantiomer E3", "setting": "[2]; [3]", "value": "higher anticoagulant activity than the anticoagulant activity of said enantiomer E3"}]}
{"smiles": "O=c1oc2ccccc2c(O)c1C(CC(O)c1ccc(-c2ccc(Br)cc2)cc1)c1ccccc1", "note": "(single isomer, unassigned) [enantiomer E2, 3-[3-(4′-bromo[1,1′-biphenyl]-4-yl)-3-hydroxy-1-phenylpropyl]-4-hydroxy-2H-1-benzopyran-2-one]", "values": [{"measurement": "concentration of each enantiomer in rat liver", "setting": "[1]; listed as E2", "value": "only enantiomer E1 remains in the rat liver"}]}
{"smiles": "O=c1oc2ccccc2c(O)c1C(CC(O)c1ccc(-c2ccc(Br)cc2)cc1)c1ccccc1", "note": "(single isomer, unassigned) [enantiomer E3, 3-[3-(4′-bromo[1,1′-biphenyl]-4-yl)-3-hydroxy-1-phenylpropyl]-4-hydroxy-2H-1-benzopyran-2-one]", "values": [{"measurement": "concentration of each enantiomer in rat liver", "setting": "[1]; listed as E3", "value": "only enantiomer E1 remains in the rat liver"}, {"measurement": "anticoagulant effect (coagulation time, Quick time)", "setting": "[2]; listed as E3", "value": "contrary to the ingestion of 1.5 mg of said enantiomer E3"}]}
